Measured values: patent publication US9388143B2, “Polymorph of N-(3-{[(2Z)-3-[(2-chloro-5-methoxyphenyl)amino]quinoxalin-2(1H)-ylidene]sulfamoyl}phenyl)-2-methylalaninamide” (Sanofi, priority 2012, dated 2016)

Tests used:
Assay type in all cases: physicochemical
[1] = Stability of polymorph E in competition with polymorph A (slurry in solvent, X-ray powder diffraction)
Method: (§1) To verify the stability of polymorph E, trials were performed at the laboratory scale, by putting polymorph E in competition with compound (I) (polymorph A) and with the THF solvated form in mixtures of solvent.
Polymorph E was first put in competition with compound (I) (polymorph A) (mixture 50/50, w/w) in ethanol/THF 80/20% v/v. This stability test was performed at ambient temperature under magnetic stirring for 24 hours, then the solid was filtered, dried, then analyzed by X-ray powder diffraction. […] Similar experiments were performed in ethanol 100% at various concentrations.
Polymorph E stability also was tested as a suspension in 100% ethanol at room temperature, seeded with compound (I) (polymorph A).

[2] = Stability of polymorph E in competition with the THF solvated form (slurry in THF/ethanol)
Method: as §1
Polymorph E was also put in competition with the solvated form of compound (I) obtained in from THF. A mixture of the THF solvated form and polymorph E (50/50, w/w) was left under stirring for 24 hours in 40V of THF/ethanol (50/50, v/v) at room temperature.

[3] = Differential scanning calorimetry, relative stability of polymorphs A and E by the rules of Burger; settings: from DSC melting point and enthalpy of fusion
[4] = under the competition conditions described

- solid form found after competition ([1]; competition with polymorph A, ethanol 100%, various concentrations): Polymorph E was always obtained
- solid form found by X-ray powder diffraction after competition ([1]; mixture 50/50 w/w with polymorph A, ethanol/THF 80/20% v/v, ambient temperature, magnetic stirring, 24 hours): Polymorph E was obtained
- solid form found by X-ray powder diffraction after seeding ([1]; suspension in 100% ethanol, room temperature, seeded with polymorph A, 24 hours): only polymorph E
- solid form present at the end of competition ([2]; mixture 50/50 w/w with THF solvated form, 40V THF/ethanol 50/50 v/v, room temperature, stirring 24 hours): only polymorph E was present
- relative stability versus THF-solvated form [2, 4]: more stable than the THF-solvated form
- thermodynamic stability relationship between polymorphs A and E (monotropic) [3]: the more stable one
SMILES: COc1ccc(Cl)c(Nc2nc3ccccc3nc2NS(=O)(=O)c2cccc(NC(=O)C(C)(C)N)c2)c1 [Polymorph E, N-(3-{[(2Z)-3-[(2-chloro-5-methoxyphenyl)amino]quinoxalin-2(1H)-ylidene]sulfamoyl}phenyl)-2-methylalaninamide]
- relative stability versus polymorph A [1, 4]: more stable than the polymorph A of compound (I)
